Assays:
[1] = Fluorescence quantum yield (Coumarin 307 as reference); type: physicochemical
Method: The absorption spectra of the two-photon probes were recorded on a Hewlett-Packard 8453 diode array spectrophotometer, and the fluorescence spectra of the two-photon probes were obtained with an Amico-Bowman series 2 luminescence spectrometer with a 1 cm standard quartz cell. The fluorescence quantum yields of the two-photon probes were determined by using Coumarin 307 as the reference by the literature method (J. N. Demas, G. A. Crosby, J. Phys. Chem. 1971, 75, 991-1024.). FIGS. 2a and 2b are one-photon absorption and emission spectra of the two-photon probe AZn1, respectively, and FIGS. 2c and 2d are one-photon absorption and emission spectra of the two-photon probe AZn2, respectively.

[2] = Dissociation constants for Zn2+ from one- and two-photon fluorescence titration; type: binding
Method: MOPS buffer solutions (30 mM, pH 7.2, 0.1 M KCl) containing different amounts of ZnSO4 and 10 mM EGTA were prepared.
The concentration of free Zn^2+ ([Zn^2+]free) was calculated from KZn−EGTA^app, [EGTA]free, and [Zn^2+]total using Equation 1: [Zn^2+]free=[Zn^2+]total/(αZn×KZn−EGTA^app×[EGTA]free) (1) where KZn−EGTA^app=KZn−EGTA/αZnαEGTA, αZn=1+10^(pH−pK^1^)+10^(2pH−pK^1^−pK^2^)+10^(3pH−pK^1^−pK^2^−pK^3^) . . . , αEGTA=1+10^(pK^1^−pH+0.11)+10^(pK^1^+pK^2^−2pH+0.22)+10^(pK^1^+pK^2^+pK^3^−3pH+0.33) . . . , and [EGTA]free=[EGTA]total−[Zn^2+]total. Therefore,
Then, the stability constant (KZn−EGTA) of the EGTA−Zn^2+ complex was obtained by the known method. For EGTA (pH 7.2, 0.1 M KCl, 25° C.), pK1, pK2, pK3 and log^K^Zn−EGTA were 9.40, 8.79, 2.70 and 12.6, respectively. […]
In order to determine accurate dissociation constants for the two-photon probes, fluorescence titration curves were obtained from FIGS. 3a and 3e using Equation 2:
[formula] where F is the fluorescence intensity, Fmax is the maximum fluorescence intensity, Fo is the fluorescence intensity in the absence of Zn^2+, and [Zn^2+]free is the concentration of free Zn^2+.
The Kd value that best fits the titration curve ([…]) with Equation 2 was calculated by using the Excel program. […]

[3] = Fluorescence enhancement with varying Zn2+ concentrations; conditions: for FEF^OP, fluorescence enhancement factor by one-photon process / FEF^TP, fluorescence enhancement factor by two-photon process: (F−Fmin)/Fmin, MOPS buffer pH 7.2, presence of Zn2+
Method: The one-photon absorption and emission spectra and two-photon emission spectra of the two-photon probes AZn2 and AZn1 were measured with varying Zn^2+concentrations, and the results are shown in FIGS. 3a through 3f.
As can be known from FIGS. 3a through 3f, when small increments of Zn^2+were added to AZn1 and AZn2 in MOPS buffer solution (30 mM, pH 7.2, /=0.10), the one- and two-photon excitation fluorescence (emission) intensity increased gradually without affecting the absorption spectra, presumably due to the blocking of the photo-induced electron transfer (PET) process by the complexation with Zn^2+.
The fluorescence enhancement factors [FEF=(F−Fmin)/Fmin] of the two-photon probe AZn2 measured for one- and two-photon processes were 2.5-fold larger than those of the two-photon probe AZn1 as a result of the lower fluorescence quantum yield (Φ) in the absence, and higher Φ in the presence, of excess Zn^2+. These analytical results can be more easily understood from the data in Table 2.

293 cells = assay: TPEF monitoring of labeled 293 cells after SNOC and TPEN; type: cell-based; conditions: 10 mM SNOC, 0.1 mM TPEN, compared with AZn2
Method: Referring to FIG. 14, the TPEF intensity increased gradually with time and then decreased abruptly upon addition of 0.1 mM TPEN, a membrane permeable Zn^2+chelator that can effectively remove Zn^2+.

rat hippocampal slice = assay: Monitoring of Zn2+ in rat hippocampal slice by TPM
Method: In this experimental example, TPM images were obtained from a part of acute rat hippocampal slice incubated with 10 μM AZn2 for 30 min at 37° C. Because the slice of a 14-day old rat was too big to show with one image, several TPM images were obtained in the same plane at ˜120 μm depth and combined. […]
The negligible TPEF (c) after addition of TPEN, which effectively remove the [Zn^2+]i, provides a supporting evidence for this observation.
When 50 mM KCl, a membrane depolarizer causing the release of Zn^2+, was added to the imaging solution, the TPEF intensity increased, and then decreased upon treatment with TPEN. Similar results can also be found in (d)-(f) of FIG. 15.

[4] = 20 mM MOPS, 100 mM KCl, 10 mM EGTA, pH 7.2, absence of Zn2+, ±10%
[5] = 20 mM MOPS, 100 mM KCl, 10 mM EGTA, pH 7.2, presence of Zn2+, ±10%

Row | SMILES | fluorescence quantum yield φ [1, 4] | fluorescence quantum yield φ [1, 5] | fluorescence quantum yield φ ([1]; 1,4-dioxane, ±15%) | fluorescence quantum yield φ ([1]; DMF, ±15%) | fluorescence quantum yield φ ([1]; Ethanol, ±15%) | fluorescence quantum yield φ ([1]; H2O, ±15%) | detection limit for Zn2+ [2] | FEF^OP, fluorescence enhancement factor by one-photon process [3] | FEF^TP, fluorescence enhancement factor by two-photon process [3] | TPEF response after SNOC then TPEN (293 cells) | FEF (one- and two-photon) relative to AZn1 ([3]; larger than those of AZn1) [fold] | TPEF intensity after addition of KCl (rat hippocampal slice; 50 mM KCl, hilus of dentate gyrus) | TPEF after addition of TPEN (rat hippocampal slice; hilus of dentate gyrus, FIG. 17) | depth at which intracellular free Zn2+ is imaged in live tissue (rat hippocampal slice; rat hippocampal slice, 10 μM probe)
1 | Nc1ccc(NCCN(Cc2ccccn2)Cc2ccccn2)cc1 [AZn1] | 0.022 | 0.47 | 0.19 | 0.055 | 0.057 | 0.022 | sub-nM range | 21 | 24 | the response was smaller | – | – | – | –
2 | COc1cc(NC(=O)CN(C)c2ccc3cc(C(C)=O)ccc3c2)ccc1NCCN(Cc1ccccn1)Cc1ccccn1 [AZn2] | 0.012 | 0.65 | 0.094 | 0.037 | 0.039 | 0.012 | sub-nM range | 54 | 52 | – | 2.5 | increased | clear reduction in TPEF | 80-150 μm

— patent US8129137B2, “Two-photon probe for real-time monitoring of intracellular free zinc ions, method for preparing the probe and method for real-time monitoring of intracellular free zinc ions using the probe” (Korea University Industrial & Academic Collaboration …, priority 2008, dated 2012)
